According to patent US6913935B1, “Multiple assay method” (Amersham Biosciences UK Limited, priority 1998, dated 2005):

Target: streptavidin (Streptomyces avidinii, UniProt P22629)
Test: Competition of Cy-5 labelled biotin binding to streptavidin coated beads, mixed wells analysed by flow cytometry
Conditions: well 2, bead type B (purple fluor), buffer containing biotin added before Cy-5 labelled biotin; compared with well 1 (buffer only)
Method: Streptavidin coated bead type A (yellow fluor) and bead type B (purple fluor) were pipetted into two separate wells of a microtitre plate, such that well 1 contained bead A and well 2 contained bead B. Buffer was added to well 1 and buffer containing biotin was added to well 2. Following mixing arid incubation a solution of Cy-5 labelled biotin in buffer was added to both wells. Following further incubation the contents of well 1 and well 2 were combined and the mixture analysed by flow cytometry.

Sequence of streptavidin (P22629 25-183, species assumed): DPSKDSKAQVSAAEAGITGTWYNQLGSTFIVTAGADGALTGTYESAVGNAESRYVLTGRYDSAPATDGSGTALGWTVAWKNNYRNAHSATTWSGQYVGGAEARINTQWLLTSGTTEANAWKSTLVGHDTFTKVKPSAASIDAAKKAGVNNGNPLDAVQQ

## O=C(O)CCCC[C@@H]1SC[C@@H]2NC(=O)N[C@@H]21 [biotin]
  Cy-5 fluorescence associated with bead type (Cy-5-biotin binding to streptavidin on the bead surface): low Cy-5-biotin binding
